{
  "source": "patent US12054471B2",
  "about": "“Thiocycloheptyne derivatives and their use” (Cristal Delivery B.V., priority 2018, dated 2024)",
  "key": {"[1]": {"assay": "Reaction kinetics of model click reaction with benzylazide, measured by NMR (CDCl3)", "assay_type": "physicochemical", "protocol": "The alkyne (TMTSHI or BCN-OH) was reacted with 1.3 eq benzylazide and reaction kinetics were measured using NMR (CDCl3). Conversion of TMTHSI with benzyl azide reached 79% after 225 seconds, the reaction with BCN-OH took about 40-fold longer (9312 seconds). The reaction conversion (%) is calculated based on triazole signals, taking the plateau of triazole signal at the end of reaction as 100% level=when all TMTHSI or BCN-OH fully reacted with benzylazide. The results of the measurements are included in FIG. 17A."}, "[2]": {"assay": "Reaction kinetics with benzylazide monitored by QTOF-ESI mass spectrometry to determine rate constant kt", "assay_type": "physicochemical", "details": "1.0 eq benzylazide, ACN/water/acetic acid (3:1:0.01%), MS", "protocol": "The kt value for the conversion of benzylazide with BCN-OH and TMTHSI was investigated by monitoring the reactions via mass spectrometry. In this study, QTOF mass spectrometry with an ESI source coupled to it, was utilized as a method of measurements. In detail, the alkyne (TMTSHI or BCN-OH in ACN/water/acetic acid (3:1:0.01%) was reacted with 1.0 eq benzylazide and reaction kinetics were measured using MS. The results of the measurements are included in FIG. 55. The measured kt value for TMTHSI in the reaction with benzylazide is 0.83 M^−1S^−1, which is approximately 7 times faster than BCN-OH (0.12 M^−1S^−1)."}, "[3]": {"assay": "Storage stability as a powder, checked by 1H-NMR and LC/MS", "assay_type": "physicochemical", "details": "stored as a powder at both light and dark locations under atmospheric pressure; 1H-NMR and LC/MS (SC_BASE)", "from_the_text": "TMTHSI was proven to be stable during storage."}, "[4]": {"details": "Dommerholt et al.; cited from earlier work"}},
  "data": [
    {"compound": "OCC1[C@H]2CCC#CCC[C@@H]12", "note": "(some centres unmarked) [BCN-OH, reference compound]", "values": [
      {"measurement": "reaction time relative to TMTHSI (fold longer)", "setting": "[1]; 1.3 eq benzylazide, CDCl3, NMR", "value": "about 40 fold"},
      {"measurement": "time to reach 79% conversion with benzyl azide", "setting": "[1]; 1.3 eq benzylazide, CDCl3, NMR", "value": 9312, "unit": "s"},
      {"measurement": "kt value in the reaction with benzylazide", "setting": "[2]", "value": 0.12, "unit": "M^−1S^−1"}
    ]},
    {"compound": "CC1(C)C#CC(C)(C)CS(=N)(=O)C1", "note": "[Compound 3, 1-imino-3,3,6,6-tetramethyl-4,5-didehydro-2,3,6,7-tetrahydro-1H-1λ^6-thiepine 1-oxide]", "values": [
      {"measurement": "compound still in tact after storage", "setting": "[3]", "value": "≥ 10", "unit": "months"},
      {"measurement": "time to reach 79% conversion with benzyl azide", "setting": "[1]; 1.3 eq benzylazide, CDCl3, NMR", "value": 225, "unit": "s"},
      {"measurement": "Conversion with benzyl azide", "setting": "[1]; after 225 seconds, 1.3 eq benzylazide, CDCl3, NMR, based on triazole signals", "value": 79, "unit": "%"},
      {"measurement": "comparison of reaction kinetics with BCN-OH (FIG. 17A)", "setting": "[1]; reaction with benzylazide, NMR", "value": "significantly faster than BCN-OH"},
      {"measurement": "kt value in the reaction with benzylazide", "setting": "[2]", "value": 0.83, "unit": "M^−1S^−1"},
      {"measurement": "rate relative to BCN-OH (times faster)", "setting": "[2]", "value": "approximately 7 times"}
    ]},
    {"compound": "CC1(C)C#CC(C)(C)CS(=O)(=NC(=O)ON2C(=O)CCC2=O)C1", "note": "[Compound 12, 2,5-dioxopyrrolidin-1-yl (3,3,6,6-tetramethyl-1-oxido-4,5-didehydro-2,3,6,7-tetrahydro-1λ^6-thiepan-1-ylidene)carbamate]", "values": [
      {"measurement": "compound still in tact after storage", "setting": "[3]", "value": "≥ 4", "unit": "months"}
    ]},
    {"compound": "CC1(C)C#CC(C)(C)CSC1", "note": "[TMTH, 3,3,6,6-tetramethylthiacycloheptyne]", "values": [
      {"measurement": "stability of TMTH", "setting": "[4]", "value": "poor stability"}
    ]}
  ]
}
